The record followed here is patent US7790769B2, “Merocyanine derivatives” (Ciba Corporation, priority 2005, dated 2010).

This data set is described as follows: Solubility behaviour in water and cosmetic solvents/oils. The class given is physicochemical. The note with it: for Solubility behaviour [%], Cyclomethicone: solvent: Cyclomethicone; for Solubility behaviour [%], Finsolve TN: solvent: Finsolve TN; for Solubility behaviour [%], Jojoba Oil: solvent: Jojoba Oil; for Solubility behaviour [%], Mineral Oil: solvent: Mineral Oil; for Solubility behaviour [%], Mygliol: solvent: Mygliol; for Solubility behaviour [%], Polydecene: solvent: Polydecene; for Solubility behaviour [%], Propyleneglycol: solvent: Propyleneglycol; for Solubility behaviour [%], (Water): solvent: water.

Bounds are passed on as bounds.

In the case of `CCCCC(CC)CN(CC(CC)CCCC)C1=CC(=C(C#N)C#N)CCC1` (stereo not shown), the “Solubility behaviour [%], Cyclomethicone” value turned out to be 0.540%; the “Solubility behaviour [%], Finsolve TN” value was over 50%; the “Solubility behaviour [%], Jojoba Oil” value is over 50%; the “Solubility behaviour [%], Mineral Oil” value stood at 1.514%. Also, the “Solubility behaviour [%], Mygliol” value was over 50%; the “Solubility behaviour [%], Polydecene” value turned out to be 0.734%; the “Solubility behaviour [%], Propyleneglycol” value turned out to be 0.766%; the “Solubility behaviour [%], (Water)” value amounted to 0.000%.
For `CCCCC(CC)CN(CC(CC)CCCC)C1=CC(=C(C#N)C#N)CC(C)(C)C1` (stereo not shown), the “Solubility behaviour [%], Cyclomethicone” value is given as 0.509%; the “Solubility behaviour [%], Finsolve TN” value was over 5%; the “Solubility behaviour [%], Jojoba Oil” value amounted to 2.470%; the “Solubility behaviour [%], Mineral Oil” value stood at 0.569%. Also, the “Solubility behaviour [%], Mygliol” value was over 5%; the “Solubility behaviour [%], Polydecene” value stood at 0.367%; the “Solubility behaviour [%], Propyleneglycol” value was determined as 0.361%; the “Solubility behaviour [%], (Water)” value stood at 0.000%.
